Patent US7901713B2, “Inhibition of COX-2 and/or 5-LOX activity by fractions isolated or derived from hops” (Metaproteomics, LLC, priority 2001, dated 2011)

Legend:
[1] = clinical trials; cited from earlier work
Jurkat cells = assay: Antioxidant activity, DCFH-DA oxidative stress model (H2O2 + LPS) in Jurkat cells; assay type: cell-based; settings: Homo sapiens, 1000 μM H2O2 + 1 μg/mL LPS, highest concentration tested 50 μg/mL, parenthetic 95% confidence limits
Experimental: Chemicals and reagents—Bacterial lipopolysaccharide (LPS; B E. coli 055:B5) was from Sigma (St. […] (Eugene, Oreg.); DCFH-DA was dissolved in dimethyl sulfoxide (DMSO) as a stock solution and kept frozen at −20° C. […] Positive control compounds included caffeic acid and Trolox obtained from Sigma (St. Louis, Mo.) and were of the highest purity commercially available. […] Unless otherwise noted, all standard reagents were obtained from Sigma and were the purest commercially available. […] Excess DCFH-DA was removed by centrifuging the cells for 10 minutes and resuspending them in the original growth medium. Cells were plated in microtiter wells at a concentration of approximately 10^6 cells per well. […] Fluorescence for each well was captured, digitized and stored on a computer using Cytofluor (Version 4.0). Measurements of fluorescence were made every ten minutes for 60 minutes. The change in DCF fluorescence is presented relative to the LPS-stimulated Jurkat cells alone; […] […] Antioxidant activity of the test materials—Oxidative stress was measured in cells using DCFH-DA in a microtiter plate assay as previously described [Wang, H. and Joseph, J. A. (1999) Quantifying cellular oxidative stress by dichlorofluorescein assay using microplate reader. […] Thus, the assay can be used to quantify overall oxidative stress in cells. […] Cm is determined from the x-intercept of the median-effect plot. […]

RAW 264.7 cells = assay: Antioxidant activity, DCFH-DA oxidative stress model (H2O2 + LPS) in RAW 264.7 cells; assay type: cell-based, murine; settings: Mus musculus, RAW264.7; 1000 μM H2O2 + 1 μg/mL LPS; highest concentration tested 50 μg/mL; parenthetic 95% confidence limits

SMILES | reduction of primary and secondary incidence of myocardial infarction and other CVDs [1] | IC50 (Jurkat cells) [µg/mL] | IC50 (RAW 264.7 cells) [µg/mL]
CC(=O)Oc1ccccc1C(=O)O [Aspirin, acetylsalicylic acid] | approximately 25% |  | 
Cc1c(C)c2c(c(C)c1O)CCC(C)(C(=O)O)O2 (stereo not shown) [Trolox] |  | 5.4 | 
O=C(O)/C=C/c1ccc(O)c(O)c1 [Caffeic acid, caffeic acid] |  | 3.2 | 3.3
